Results: patent US20050176672A1, “Use of cationic lipids to generate anti-tumor immunity” (Genzyme Corporation, priority 1999, published 2005)

Key:
[1] = test system: cytokine and cellular levels in the BALF; settings: complexes formed between DOTMA and pDNA; Friemark et al. 1998; cited from earlier work
[2] = test system: M3 melanoma cells; assay: M3 melanoma model; assay type: in vivo, mice; settings: lipid alone, equivalent amount; treated days 5, 10, 14, 18
Protocol: On day 0, mice were inoculated intraperitoneally with M3 melanoma cells. Following the inoculation of M3 tumor cells, the mice were treated on days […], 14, and 18 with either the GL67:pNull complex, which is cationic lipid GL67 complexed to a null vector (a vector without an expressible insert), or were left untreated (control). All untreated control animals died by day 40, while greater than 85% of the animals treated with the GL 67:pNull complex were alive on day 68.
On day 68, the surviving animals were rechallenged subcutaneously with M3 tumor cells. A naive group of animals was also challenged with these same cells in parallel. All the animals in the naive group died by day 105, while approximately 40% of the animals that had been originally treated with the GL 67:pNull complex survived not only the initial intraperitoneal tumor cells but also the secondary subcutaneous challenge.
Following the intraperitoneal inoculation on day 0 of M3 tumor cells, groups of mice were treated on days 5, 10, 14, and 18 with either GL 67:pNull complexes (lipid:pNull), an equivalent amount of GL 67 (lipid alone), an equivalent amount of pNull DNA (pNull vector alone), or were untreated.

[3] = test system: BALB/c mouse lungs; assay: Histopathological analysis of lung after intranasal instillation; assay type: in vivo, BALB/c mice; settings: component alone; scale from 0 to 4; 2 days post-instillation
Text: The histopathological changes within BALB/c mouse lungs following administration of either cationic lipid alone, pDNA alone, or cationic lipid:pDNA complexes were also examined. BALB/c mice were instilled intranasally with GL-67:(m)pCF1-CAT, GL67:pCF1-CAT, GL-67 alone, (m)pCF1-CAT, pCF1-CAT, or water (vehicle control). Mice were sacrificed 2 days post-instillation and the lungs were processed for histological examination in a blinded manner. Histopathology.
Lungs were fixed by inflation at 30 cm of H2O pressure with 2% paraformaldehyde and 0.2% glutaraldehyde. Representative samples were taken from each lung lobe, embedded in glycol methacrylate, sectioned and stained with hematoxylin and eosin. Histopathology on the lung was evaluated in a blinded fashion and graded subjectively using a scale of 0 to 4, where a score of 0 indicates no abnormal findings and a score of 4 reflects severe changes with intense infiltrates. See Scheule et al., Hum. Gene Ther. 8: 689-707 (1997).
The extent of lung inflammation was graded using a scale from 0 to 4, with 0 indicating no abnormalities, 1 indicating a minimal change, 2 a mild change, 3 a moderate change, and 4 representing severe changes from a normal lung (FIG. 4).

[4] = test system: cytokines in BALF; assay: Cytokine levels in mouse BALF after intranasal instillation (ELISA); assay type: in vivo, BALB/c mice; settings: component instilled alone; BALF 24 h
Text: Cytokine levels in the mouse BALF were quantitated using enzyme-linked immunosorbent assay (ELISA) kits as specified by the manufacturers. IFN-γ, TNF-α, IL1-α, IL-1β, IL-10 and IL-6 ELISA kits were from Genzyme Corporation, while mKC, MIP-2 and GM-CSF ELISA kits were from R&D Systems, and the Leukotriene B4 ELISA kit was from Perseptive Diagnostics.
The cationic lipid:pDNA complexes were formed by mixing equal volumes of GL67:DOPE (1:2) with pDNA as described previously (Lee et al., Hum. Gene Ther. 7: 1701-1717, (1996)) to a final concentration of 0.6:1.2:3.6 mM (GL-67:DOPE:pDNA) or 0.3:0.6:1.8 mM, as indicated in the figure legends. The DNA concentration is expressed in terms of nucleotides, using an average nucleotide molecular weight of 330 daltons. BALB/c mice were instilled intranasally with 100 μl of complex as described. See Scheule et al., Hum. Gene Ther. 8: 689-707 (1997). The animals were euthanized and their lungs were lavaged 24 h post-instillation using phosphate-buffered saline (PBS). The recovered BALF were centrifuged at 1,500 rpm for 4 min, and the resulting supernatants were removed and frozen at −80° C. for subsequent cytokine analysis. […]
To determine whether methylation of pDNA affected the inflammatory response in the lungs, we measured the levels of several different cytokines in the BALF 24 h after instillation. […]

SMILES	cytokine and cellular levels in the BALF of treated animals [1]	mice surviving more than 50 days post tumor cell inoculation [2]	lung inflammation score [3]	levels of these four cytokine (TNF-α, IFN-γ, IL-6, KC) in BALF [4]
CCCCCCCC/C=C\CCCCCCCCOCC(C[N+](C)(C)C)OCCCCCCCC/C=C\CCCCCCCC.[Cl-] (stereo not shown) [DOTMA, N-[1-(2-3-dioleyloxy)propyl]-N,N,N-trimethylammonium chloride]	enhanced	–	–	–
CC(C)CCC[C@@H](C)[C@H]1CC[C@H]2[C@@H]3CC=C4C[C@@H](OC(=O)N(CCCN)CCCCNCCCN)CC[C@]4(C)[C@H]3CC[C@]12C [GL-67]	–	about 35%	scored slightly lower than lungs that received lipid:pDNA complex	low levels
